Measured values reported in PMC4890880 (ACS infectious diseases, 2016).
Read-outs that look alike come from different tables or passages of the source.

Experiments:
[1] = system: HepG2-A16-CD81EGFP cells; test: cells; details: Homo sapiens, HepG2, read-out: % inhibition
[2] = system: HepG2-A16-CD81EGFP cells
[3] = system: HepG2-A16-CD81EGFP cells; test: cells; details: Homo sapiens, HepG2, read-out: % inhibition; remark: listed apart in the source
[4] = system: Plasmodium berghei (Pb-Luc) exoerythrocytic-stage parasites; test: microbe, parasite or virus in culture
[5] = read-out: Inhibition% @ 50 uM rep1
[6] = read-out: Inhibition% @ 50 uM rep2

Row | Structure (SMILES) | inhibition at 50 µM [1] | HepG2 Tox% @ 50 uM rep2 ([2]; human, 50 uM) | inhibition at 50 µM [3] | inhibition at 50 µM [4, 5] | inhibition at 50 µM [4, 6] | HepG2 Tox% @ 50 uM rep1 ([2]; human, 50 uM) | HepG2 Tox% @ 50 uM rep1 ([2]; HepG2, 50 uM, replicate 1) | HepG2 Tox% @ 50 uM rep2 ([2]; HepG2, 50 uM, replicate 2)
1 | CN(C)CCCNc1c2ccccc2nc2ccccc12 [MMV000448] | 96.8% | 100% | 99.5% | 103% | 106% |  |  | 
2 | CCCN(CCC)CCCNC(=O)c1cc2c(-c3ccc(OC)c(OC)c3)nn(C)c2s1 [MMV000561] | 98.1% | 100% | 100% | 104% | 106% |  |  | 
3 | CCCN(CCC)CC(O)COc1ccccc1C(=O)Nc1ccccc1 (centres unmarked) [MMV006455] | -8.15% |  | 7.57% | 84% | 75% | -8% |  | 
4 | Cc1cc(N2CCN(C3CCCC3)CC2)n2c(nc3ccccc32)c1C#N [MMV006706] | -9.81% | -11% | -11.2% | 48% | 24% | -10% |  | 
5 | COc1cc2cc(C(=O)Nc3ccccc3)c(N)nc2cc1OC [MMV006767] | 18.2% | 10% | 10.2% | 73% | 39% |  |  | 
6 | CN1CCN(c2c3c(c(C#N)c4nc5ccccc5n24)CCC3)CC1 [MMV008127] | -6.02% | -9% | -9.23% | 28% | -16% |  |  | 
7 | Cc1cc(C)cc(Nc2cc(C)nc3nc(C(F)(F)F)nn23)c1 [MMV011259] | 29.5% |  | 54.7% | 100% | 99% | 30% |  | 
8 | CCOC(=O)C1CCN(C(=O)CN2C(=O)c3ccccc3C2c2c[nH]c3ccccc23)CC1 (centres unmarked) [MMV011576] | -18.5% | -12% | -12.2% | 41% | 58% | -19% |  | 
9 | CCN1CCN(c2cc(C)c3cc(NC(=O)c4ccc(OC)c(OC)c4)ccc3n2)CC1 [MMV019074] | 98.4% | 100% | 100% | 104% | 104% |  |  | 
10 | Cc1cc(NC(=O)c2cccc(C(F)(F)F)c2)n(-c2nc(-c3ccc4c(c3)OCO4)cs2)n1 [MMV396681] | -14.6% | -14% | -14.2% | 1.11% | -36% | -15% |  | 
11 | COc1cccc(C2(C)Nc3ccccc3-c3nc4ccccc4n32)c1 (centres unmarked) [MMV396719] | 97% | 100% | 99.7% | 104% | 106% |  |  | 
12 | COc1ccc(C(=O)Nc2ccc(Cl)cc2C(=O)Nc2ccncc2)cc1 [MMV665799] | -8.2% | -10% | -10.4% | 67% | 39% | -8% |  | 
13 | CCOC(=O)c1c(NC(=O)c2ccccc2)sc2c(O)c(CN(CC)CC)ccc12 [MMV665831] | 26.5% |  | 34.3% | 96% | 70% | 27% |  | 
14 | CCCc1cc(O)c2c3c(c(=O)oc2c1)CN(C)CC3 [MMV665841] | 10.6% |  | 26.3% | 83% | 44% |  | 11% | 26%
15 | COc1ccc(-c2nonc2NC(=O)c2cccc(C)c2)cc1OC [MMV665890] | -1.53% | -3% | -2.92% | 7% | 13% |  |  | 
16 | CCCCNCC(O)(c1ccc(Cl)cc1)c1ccc(Cl)cc1 [MMV665929] | 95.9% |  | 99.2% | 104% | 105% |  |  | 
17 | O=C(Nc1ccsc1C(=O)NC1CCCCC1)c1ccc(F)cc1 [MMV665939] | 25.8% |  | 35% | 71% | 43% |  |  | 

Row | Structure (SMILES) | inhibition at 50 µM [1] | HepG2 Tox% @ 50 uM rep2 ([2]; human, 50 uM) | inhibition at 50 µM [3] | inhibition at 50 µM [4, 5] | inhibition at 50 µM [4, 6] | HepG2 Tox% @ 50 uM rep1 ([2]; human, 50 uM) | HepG2 Tox% @ 50 uM rep1 ([2]; HepG2, 50 uM, replicate 1) | HepG2 Tox% @ 50 uM rep2 ([2]; HepG2, 50 uM, replicate 2)
18 | O=C(Nc1ccccc1O)c1ccc(-c2ccc(Cl)cc2Cl)o1 [MMV665948] | 15.3% |  | -7.03% | 8% | -61% | 15% |  | 
19 | CCN(CC)CCCNc1nc(-c2ccc(Cl)cc2)nc2ccccc12 [MMV665961] | 95% |  | 87.3% | 101% | 103% |  |  | 
20 | CN1c2ccccc2N(C)C1c1ccc2c(c1)OCO2 [MMV666009] | 81.6% |  | 81% | 102% | 105% |  |  | 
21 | O=C(Nc1ccc(Cl)cc1C(=O)Nc1ccncc1)c1ccc(Cl)cc1Cl [MMV666057] | 78.3% |  | 94.5% | 101% | 102% |  |  | 
22 | COc1cccc(O)c1CN1CCC2(CCCN(Cc3ccc(F)cc3)C2)C1 (centres unmarked) [MMV666061] | 96.5% |  | 98.8% | 103% | 103% |  |  | 
23 | Cc1ccc(CN2CCC(C(=O)Nc3ccc(-c4cc5ccccc5[nH]4)cc3)CC2)o1 [MMV666071] | 42.7% |  | 43.9% | 98% | 96% |  |  | 
24 | COc1ccc(C2N(C)c3ccccc3N2C)cc1 [MMV666075] | 76.8% |  | 84.3% | 101% | 98% |  |  | 
25 | CCCC(c1nnnn1C1CCCCC1)N1CCN(C(=O)c2ccco2)CC1 (centres unmarked) [MMV666093] | -5.78% |  | -2.45% | 52% | 19% | -6% |  | 
26 | CN(C)c1ccc(-c2nc3cc(N)ccc3[nH]2)cc1 [MMV666102] | 29.4% |  | 32.6% | 97% | 94% | 29% |  | 
27 | CCn1c(SCC(=O)Nc2cc(C(F)(F)F)ccc2Cl)nc2ccccc2c1=O [MMV666103] | -3.72% |  | -0.573% | 69% | 87% |  |  | 
28 | O=C(CCc1ccco1)NC1CCN(CC2(c3ccc(Cl)cc3)CCC2)CC1 [MMV666108] | 54.1% |  | 67.1% | 101% | 102% |  |  | 
29 | Oc1ccccc1CN1CCC2(CCCN(Cc3ccccc3F)C2)C1 (centres unmarked) [MMV666116] | 73.5% |  | 85.7% | 98% | 100% |  |  | 
30 | CSC1=NC(=Nc2c(C)cccc2C)C2(CCC(C(C)(C)C)CC2)N1c1ccc(Cl)cc1 (centres unmarked) [MMV666596] | 88.7% |  | 89.2% | 104% | 106% |  |  | 
31 | CCOC(=O)c1c(C)n(-c2ccc(Cl)cc2)c2ccc(OC(=O)C=Cc3ccccc3)cc12 [MMV666600] | 70.5% |  | 68.1% | 104% | 104% |  |  | 
32 | CCOC(=O)C1=C(c2ccccc2)N=c2sc(=Cc3cc(C)n(-c4ccc(F)cc4)c3C)c(=O)n2C1c1cccc(OC)c1OC (centres unmarked) [MMV666601] | -7.05% |  | 8.55% | 84% | 87% |  |  | 
33 | COc1ccc(C=C2SC(=N)N(c3ccccc3OC)C2=O)cc1 [MMV666691] | 94.9% |  | 98.5% | 103% | 104% |  |  | 
